# Patent publication EP0791603A2, “Pure somatostatin antagonist and methods of use thereof” (American Cyanamid Company, priority 1996, dated 1997)
# Positions of bridges follow the written chain, without caps; N, C: chain ends. Non-standard residues stand in square brackets, D forms with d. Residues, ends and D or L forms follow the SMILES beside them. Phe(4-NO2) = N[C@@H](Cc1ccc([N+](=O)[O-])cc1)C(=O)O; dPhe(4-NO2) = N[C@H](Cc1ccc([N+](=O)[O-])cc1)C(=O)O; 2Nal = N[C@@H](Cc1ccc2ccccc2c1)C(=O)O; NMeA = CN[C@@H](C)C(=O)O
# Columns and labels:
# [1] = biological target: SSTR2 (Rattus norvegicus, UniProt P30680); test: Competitive binding, displacement of [125I]Tyr11 S-14; set-up: expressed in transfected cells; conditions: [125I]Tyr11 S-14 250 pM, room temperature 2 hours
# Experimental: In this evaluation the concentration of test compound required to displace 50% of somatostatin, SRIF, from the SRIF receptor subtypes expressed in mammalian cells is measured, i.e., the concentration required to inhibit 50% of [^125I] Tyr^11 S-14 (Amersham) (IC50) from binding to the SRIF receptor subtypes.
# Radiolabeled SRIF is mixed with pituitary cells, the test compound is added, the mixture is incubated and the radioactivity is measured as compared to control. Reduced radioactivity indicates successful competitive binding of the test compound to the pituitary cell receptor. The concentration of the test compound in nanomolar units required to displace 50% of SRIF from the pituitary cell receptor is calculated and reported in Table II as the IC50 value. Also calculated is the inhibitory constant, Ki.
# Tyr^11S-14 (150,000 cpm at 2000 Ci/mmole, 250 pM final concentration). The binding reaction is initiated by adding 2-60µg of membrane protein in a 170 µL volume. Final reaction volume is 200 µl/well. All incubations are carried out at room temperature for 2 hours. Free radioligand is separated from bound ligand by rapid filtration through a glass fiber filter (IH-201-HA) using an Inotech cell harvester. The filter is then washed several times with cold (4°C) binding buffer lacking BSA and protease inhibitors prior to counting in an LKB gamma master counter (78% efficiency). Whatman GFC filters presoaked in 0.3% polyethylenimine (to decrease background) are used.
# The IC50 values and Ki values are calculated using the well-known methods described by Y. Cheng and W. H. Prusoff, Biochem. Pharmacol. 22, 3099-3108 (1973), incorporated herein by reference thereto.
# [2] = system: SSTR2; test: Cyclic AMP accumulation in intact cells (forskalin stimulated, adrenal binding protein method); type: cell-based; conditions: % intrinsic activity
# Excerpt: Cyclic AMP accumulation assays are used to determine the functional coupling of somatostatin receptors to effectors. All five cloned somatostatin receptors inhibit cyclic AMP accumulation and adenylyl cyclone activity ^1 ^,2,3,4,5. This evaluation measures cyclic AMP accumulation from intact cells using the adrenal binding protein method. Signal transduction by somatostatin is mediated by lowering intracellular c-AMP levels. This functional assay measures the ability of the test compound to inhibit the effect of somatostatin on forskalin stimulated c-AMP levels. ^1 K. Yasuda, S. Rens-Damiano, C. D. Breder, S. F. Law, C. B. Saper, T. Reisine and G. I. Bell, J. Biol. Chem. 267,20422-20428 (1992). ^2 J. F. Bruno, Y. Xu, J. Song and M. Berelowitz, Proc. Natl. Acad. Sci. USA 89, 11151-11155 (1992). ^3 A. M. O'Carrol, S. J. Lolait, M. König and L. Mahan, Mol. Pharmacol. 42, 939-946 (1992). ^4 J. R. Hadcock, J. Strnad and C. M. Eppler, Mol. Pharmacol. 45, 410-416 (1994). ^5 J. Strnad, C. M. Eppler, M. Corbett and J. R. Hadcock, Biochem. Biophys. Res. Commun.191, 968-976 (1993).
# Bovine adrenal gland extracts are prepared according to the method of Brown et al^6 with minor modifications. […] Two-four adrenals are thawed and the cortices are separated on ice: chopped into small pieces; resuspended in 1.5 volumes of buffer containing 0.25 M sucrose, 50 mM Tris-HCl pH 7.4, 25 mM KCl, 5 mM MgCl2 and protease inhibitors (5 µg/ml leupeptin, 5µg/ml aprotinin, 100 µg/ml bacitracin, and 100 µg/ml benzamidine; homogenized with a Polytron and centrifuged for 5 minutes. The resultant supernatant is saved and centrifuged for 15 minutes. This resultant supernatant is saved and stored as 1 mL aliquots at -80°C. Four adrenals glands are usually sufficient to prepare 30-50 one mL aliquots. Each preparation is tested with standards at different dilutions before use in the following experiment. ^6 B. L. Brown, J. D. M. Albano, R. P. Ekins and A. M. Sgherzi, Biochem. J. 121, 561-562 (1971).
# Somatostatin-mediated inhibition of cyclic AMP accumulation is measured in intact cells co-incubated with the diterpene forskalin (5 µM) which activates adenylyl cyclase directly and stimulates cyclic AMP accumulation in cells. The medium is aspirated from two 100 mm plates of cells, a 5 mL portion of phosphate-buffered saline containing 2 mM EDTA is added to each plate. The cells are washed off the plate, without scraping. The cells are then pelleted and resuspended in Kreb's Ringers Phosphate (KRP) containing 2 mM CaCl2 (added fresh), washed once and resuspended in 2 ml of KRP with a CaCl2 containing 100 µM IBMX. The cells are counted and the concentration of cells is adjusted to 50,000/70 µl and incubated 15 minutes at room temperature before starting the assay. […]
# SSTR2 (Rattus norvegicus, UniProt P30680), sequence (P30680 whole entry): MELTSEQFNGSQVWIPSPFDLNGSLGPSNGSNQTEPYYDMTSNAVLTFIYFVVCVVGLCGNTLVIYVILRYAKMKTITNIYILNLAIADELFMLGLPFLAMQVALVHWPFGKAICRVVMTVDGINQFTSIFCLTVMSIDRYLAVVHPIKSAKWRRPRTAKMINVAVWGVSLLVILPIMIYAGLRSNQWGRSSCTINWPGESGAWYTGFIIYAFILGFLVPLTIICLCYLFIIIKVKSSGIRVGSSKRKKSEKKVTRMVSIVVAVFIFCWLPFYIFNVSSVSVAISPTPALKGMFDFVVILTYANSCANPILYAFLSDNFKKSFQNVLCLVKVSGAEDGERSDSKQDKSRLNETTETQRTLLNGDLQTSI
smiles,measurement,setting,value
CC(C)[C@@H]1NC(=O)[C@H](CCCCN)NC(=O)[C@@H](Cc2c[nH]c3ccccc23)NC(=O)[C@H](Cc2ccc(O)cc2)NC(=O)[C@H](NC(=O)[C@@H](N)Cc2ccc([N+](=O)[O-])cc2)CSSC[C@@H](C(=O)N(C)[C@@H](C)C(N)=O)NC1=O [H-p-NO2Phe-D-Cys-Tyr-D-Trp-Lys-Val-Cys-N(CH3)Ala-NH2] (H-[Phe(4-NO2)][dC]Y[dW]KVC[NMeA]-NH2; disulfide 2-7),IC50,"[1]; membrane protein, read-out: SSTR2 Binding Affinity IC50",0.055 µM
same,Ki,"[1]; calculated by Cheng and Prusoff, read-out: SSTR2 Binding Affinity Ki",0.0244 µM
same,% IA,[2],29%
NCCCC[C@@H]1NC(=O)[C@@H](Cc2c[nH]c3ccccc23)NC(=O)[C@H](Cc2ccc(O)cc2)NC(=O)[C@H](NC(=O)[C@@H](N)Cc2ccc([N+](=O)[O-])cc2)CSSC[C@@H](C(=O)N[C@@H](Cc2ccc3ccccc3c2)C(N)=O)NC(=O)[C@H](CO)NC1=O (H-[Phe(4-NO2)][dC]Y[dW]KSC[2Nal]-NH2; disulfide 2-7),% IA,[2],7%
C[C@@H](O)[C@@H]1NC(=O)[C@H](CCCCN)NC(=O)[C@@H](Cc2c[nH]c3ccccc23)NC(=O)[C@H](Cc2ccc(O)cc2)NC(=O)[C@H](NC(=O)[C@@H](N)Cc2ccc(I)cc2)CSSC[C@@H](C(=O)N[C@@H](Cc2ccc(O)cc2)C(N)=O)NC1=O,% IA,[2],-12%
CC(C)[C@@H]1NC(=O)[C@H](CCCCN)NC(=O)[C@@H](Cc2c[nH]c3ccccc23)NC(=O)[C@H](Cc2ccc(O)cc2)NC(=O)[C@H](NC(=O)[C@H](N)Cc2ccc([N+](=O)[O-])cc2)CSSC[C@@H](C(=O)N[C@@H](Cc2ccc(O)cc2)C(N)=O)NC1=O (H-[dPhe(4-NO2)][dC]Y[dW]KVCY-NH2; disulfide 2-7),% IA,[2],42%
